In patent US9238619B2, “Phenalkylamine derivatives, pharmaceutical compositions containing them, and their use in therapy” (AbbVie Deutschland GmbH & Co. KG, priority 2010, dated 2016):
pKi: −log10 of the molar value. Where a name gives a salt, the structure may show the parent alone.

Target: human GlyT1c transporter (Homo sapiens (Human), UniProt P48067)
Assay: Radioligand binding assays using recombinant CHO cell membranes expressing human GlyT1
Settings: read-out: radioligand binding Kiapp
Method: Radioligand binding to human GlyT1c transporter-expressing membranes was determined as described in Mezler et al., Molecular Pharmacology 74:1705-1715, 2008.

Chain of human GlyT1c transporter (P48067 whole entry): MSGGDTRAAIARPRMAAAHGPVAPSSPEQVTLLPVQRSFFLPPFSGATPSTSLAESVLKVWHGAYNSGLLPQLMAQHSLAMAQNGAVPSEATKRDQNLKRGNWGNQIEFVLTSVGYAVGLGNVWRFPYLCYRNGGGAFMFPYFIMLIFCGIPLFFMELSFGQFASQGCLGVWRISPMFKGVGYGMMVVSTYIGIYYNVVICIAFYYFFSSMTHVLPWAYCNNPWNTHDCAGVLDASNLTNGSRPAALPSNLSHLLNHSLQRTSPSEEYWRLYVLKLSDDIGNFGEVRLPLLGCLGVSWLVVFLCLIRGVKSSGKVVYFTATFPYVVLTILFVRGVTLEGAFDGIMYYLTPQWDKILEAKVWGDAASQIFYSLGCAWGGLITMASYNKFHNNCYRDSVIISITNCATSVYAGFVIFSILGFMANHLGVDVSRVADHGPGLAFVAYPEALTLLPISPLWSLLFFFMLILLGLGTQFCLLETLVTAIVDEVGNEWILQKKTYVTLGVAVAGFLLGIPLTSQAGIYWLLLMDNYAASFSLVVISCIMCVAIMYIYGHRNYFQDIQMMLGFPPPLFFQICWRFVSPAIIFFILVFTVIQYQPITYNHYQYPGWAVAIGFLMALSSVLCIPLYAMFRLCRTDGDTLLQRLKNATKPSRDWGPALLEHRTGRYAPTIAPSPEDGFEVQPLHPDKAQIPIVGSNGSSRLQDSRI

SMILES | pKi
CN(Cc1cccc(C(CNC(=O)OC(C)(C)C)C2(c3ccc(Cl)cc3)CCC2)c1)S(=O)(=O)c1cnn(C)c1 (stereo not drawn) [Example 39, tert-Butyl {2-[1-(4-chlorophenyl)cyclobutyl]-2-[3-({methyl[(1-methyl-1H-pyrazol-4-yl)sulfonyl]amino}methyl)phenyl]ethyl}carbamate] | ≥ 5.00
Cn1cc(S(=O)(=O)NCc2cccc(C3(Cc4ccccc4)CNC(=O)C3)c2)cn1 (stereo not drawn) [Example 66, 1-Methyl-1H-pyrazole-4-sulfonic acid 3-(3-benzyl-5-oxo-pyrrolidin-3-yl)benzylamide] | ≥ 5.00
O=S(=O)(CC1CC1)NCc1cccc(C(Cc2ccccc2)CN2CCOCC2)c1 (stereo not drawn) [Example 22, N-[3-(1-Benzyl-2-morpholin-4-yl-ethyl)-benzyl]-C-cyclopropyl-methanesulfonamide, hydrochloride] | ≥ 5.00
Cn1cnc(S(=O)(=O)NCCOc2cccc(C3(Cc4ccccc4)CCN(CC(C)(C)C)C3)c2)c1 (stereo not drawn) [Example 76, 1-Methyl-1H-imidazole-4-sulfonic acid (2-{3-[3-benzyl-1-(2,2-dimethylpropyl)-pyrrolidin-3-yl]-phenoxy}-ethyl)-amide] | ≥ 7.00
O=C1CC(Cc2ccccc2)(c2cccc(OCCNS(=O)(=O)CC3CC3)c2)CN1 (stereo not drawn) [Example 57, N-{2-[3-(3-Benzyl-5-oxo-pyrrolidin-3-yl)-phenoxy]-ethyl}-C-cyclopropyl-methanesulfonamide] | ≥ 5.00
Cn1cc(S(=O)(=O)NCc2cccc(C(Cc3ccccc3)C(N)=O)c2)cn1 (stereo not drawn) [Example 15, 2-{3-[(1-Methyl-1H-pyrazole-4-sulfonylamino)-methyl]-phenyl}-3-phenyl-propionamide] | ≥ 5.00
Cn1cnc(S(=O)(=O)NCc2cccc(C(Cc3ccccc3)C(N)=O)c2)c1 (stereo not drawn) [Example 16, 2-{3-[(1-Methyl-1H-imidazole-4-sulfonylamino)-methyl]-phenyl}-3-phenyl-propionamide] | ≥ 5.00
CN(Cc1cccc(C(CN)C2(c3ccc(Cl)cc3)CCC2)c1)S(=O)(=O)c1cn(C)cn1 (stereo not drawn) [Example 44, N-(3-{2-Amino-1-[1-(4-chlorophenyl)cyclobutyl]ethyl}benzyl)-N,1-dimethyl-1H-imidazole-4-sulfonamide hydrochloride] | ≥ 5.00
Cn1cnc(S(=O)(=O)NCCOc2cccc(C3(Cc4ccccc4)CN(CCF)C3)c2)c1 [Example 72, 1-Methyl-1H-imidazole-4-sulfonic acid (2-{3-[3-benzyl-1-(2-fluoro-ethyl)azetidin-3-yl]-phenoxy}-ethyl)-amide] | ≥ 7.00
CCCS(=O)(=O)N(C)Cc1cccc(C(CNC(=O)OC(C)(C)C)C2(c3ccc(Cl)cc3)CCC2)c1 (stereo not drawn) [Example 40, tert-Butyl {2-[1-(4-chlorophenyl)cyclobutyl]-2-(3-{[methyl(propylsulfonyl)amino]methyl}phenyl)ethyl}carbamate] | ≥ 5.00
CCOC(=O)N1CC(Cc2ccccc2)(c2cccc(OCCNS(=O)(=O)c3cnn(C)c3)c2)C1 [Example 46, 3-Benzyl-3-{3-[2-(1-methyl-1H-pyrazole-4-sulfonylamino)-ethoxy]-phenyl}-azetidine-1-carboxylic acid ethyl ester] | ≥ 5.00
Cn1cc(S(=O)(=O)NCCOc2cccc(C(CN)Cc3cc(F)cc(F)c3)c2)cn1 (stereo not drawn) [Example 7, 1-Methyl-1H-pyrazole-4-sulfonic acid (2-{3-[2-amino-1-(3,5-difluoro-benzyl)ethyl]-phenoxy}-ethyl)-amide, hydrochloride] | ≥ 6.00
CN1CCCC(Cc2ccccc2)(c2cccc(OCCNS(=O)(=O)CC3CC3)c2)C1 (stereo not drawn) [Example 64, N-{2-[3-(3-Benzyl-1-methyl-piperidin-3-yl)-phenoxy]-ethyl}-C-cyclopropyl-methanesulfonamide] | ≥ 5.00
CN1CC(Cc2ccccc2)(c2ccc(F)c(OCCN(C)S(=O)(=O)c3cn(C)cn3)c2)C1 [Example 53, 1-Methyl-1H-imidazole-4-sulfonic acid {2-[5-(3-benzyl-1-methyl-azetidin-3-yl)-2-fluoro-phenoxy]-ethyl}-methyl-amide] | ≥ 6.00
CN(Cc1cccc(C(CN)C2(c3ccc(Cl)cc3)CCC2)c1)S(=O)(=O)c1cnn(C)c1 (stereo not drawn) [Example 45, N-(3-{2-Amino-1-[1-(4-chlorophenyl)cyclobutyl]ethyl}benzyl)-N,1-dimethyl-1H-pyrazole-4-sulfonamide hydrochloride] | ≥ 5.00

Results, then the compound that gave them:

pKi | SMILES
≥ 6.00 | Cn1cc(S(=O)(=O)NCc2cccc(C(Cc3ccccc3)CN3CCOCC3)c2)cn1 (stereo not drawn) [Example 21, 1-Methyl-1H-pyrazole-4-sulfonic acid 3-(1-benzyl-2-morpholin-4-yl-ethyl)benzylamide]
≥ 7.00 | CN(C)CC(Cc1ccccc1)c1cccc(OCCNS(=O)(=O)c2cnn(C)c2)c1 (stereo not drawn) [Example 24, 1-Methyl-1H-pyrazole-4-sulfonic acid {2-[3-(1-benzyl-2-dimethylamino-ethyl)phenoxy]-ethyl}-amide]
≥ 6.00 | Cn1cc(S(=O)(=O)NCCOc2cccc(C(Cc3ccccc3)CN3CCC3)c2)cn1 (stereo not drawn) [Example 36]
≥ 6.00 | Cn1cnc(S(=O)(=O)NCc2cccc(C(CN)Cc3ccccc3)c2)c1 (stereo not drawn) [Example 19, 1-Methyl-1H-imidazole-4-sulfonic acid 3-(2-amino-1-benzyl-ethyl)benzylamide, hydrochloride]
≥ 6.00 | Cn1cnc(S(=O)(=O)NCCOc2cccc(C(CN)Cc3cc(F)cc(F)c3)c2)c1 (stereo not drawn) [Example 11, 1-Methyl-1H-imidazole-4-sulfonic acid (2-{3-[2-amino-1-(3,5-difluoro-benzyl)ethyl]-phenoxy}-ethyl)-amide, hydrochloride]
≥ 6.00 | CN(C)CC(Cc1ccccc1)c1cccc(CNS(=O)(=O)c2cnn(C)c2)c1 (stereo not drawn) [Example 27, 1-Methyl-1H-pyrazole-4-sulfonic acid 3-(1-benzyl-2-dimethylamino-ethyl)benzylamide]
≥ 6.00 | Cn1cc(S(=O)(=O)NCCOc2cccc(C3(Cc4ccccc4)CNC(=O)C3)c2)cn1 (stereo not drawn) [Example 58, 1-Methyl-1H-pyrazole-4-sulfonic acid {2-[3-(3-benzyl-5-oxo-pyrrolidin-3-yl)phenoxy]-ethyl}-amide]
≥ 7.00 | Cn1cc(S(=O)(=O)NCCOc2cccc(C(CN)Cc3ccccc3)c2)cn1 (stereo not drawn) [Example 6, 1-Methyl-1H-pyrazole-4-sulfonic acid {2-[3-(2-amino-1-benzyl-ethyl)-phenoxy]-ethyl}-amide, hydrochloride]
≥ 7.00 | CN1CCCC(Cc2ccccc2)(c2cccc(OCCNS(=O)(=O)c3cn(C)cn3)c2)C1 (stereo not drawn) [Example 62, 1-Methyl-1H-imidazole-4-sulfonic acid {2-[3-(3-benzyl-1-methyl-piperidin-3-yl)-phenoxy]-ethyl}-amide]
≥ 6.00 | CCOC(=O)N1CC(Cc2ccccc2)(c2cccc(OCCNS(=O)(=O)c3cn(C)cn3)c2)C1 [Example 47, 3-Benzyl-3-{3-[2-(1-methyl-1H-imidazole-4-sulfonylamino)-ethoxy]-phenyl}-azetidine-1-carboxylic acid ethyl ester]
≥ 7.00 | COCCN1CC(Cc2ccccc2)(c2cccc(OCCNS(=O)(=O)c3cn(C)cn3)c2)C1 [Example 73, 1-Methyl-1H-imidazole-4-sulfonic acid (2-{3-[3-benzyl-1-(2-methoxy-ethyl)azetidin-3-yl]-phenoxy}-ethyl)-amide]
≥ 6.00 | Cn1cc(S(=O)(=O)NCCOc2cccc(C(CN)Cc3ccc(Cl)cc3)c2)cn1 (stereo not drawn) [Example 8, 1-Methyl-1H-pyrazole-4-sulfonic acid (2-{3-[2-amino-1-(4-chloro-benzyl)ethyl]-phenoxy}-ethyl)-amide, hydrochloride]
≥ 7.00 | Cn1cnc(S(=O)(=O)NCCOc2cc(C(CN)Cc3ccccc3)ccc2F)c1 (stereo not drawn) [Example 4, 1-Methyl-1H-imidazole-4-sulfonic acid {2-[5-(2-amino-1-benzyl-ethyl)-2-fluoro-phenoxy]-ethyl}-amide, hydrochloride]
≥ 6.00 | Cn1cnc(S(=O)(=O)NCCOc2cccc(C3(Cc4ccccc4)CNC(=O)C3)c2)c1 (stereo not drawn) [Example 56, 1-Methyl-1H-imidazole-4-sulfonic acid {2-[3-(3-benzyl-5-oxo-pyrrolidin-3-yl)-phenoxy]-ethyl}-amide]
≥ 7.00 | CN(C)CC(Cc1ccccc1)c1ccc(F)c(OCCNS(=O)(=O)c2cn(C)cn2)c1 (stereo not drawn) [Example 32, 1-Methyl-1H-imidazole-4-sulfonic acid {2-[5-(1-benzyl-2-dimethylamino-ethyl)-2-fluoro-phenoxy]-ethyl}-amide]
≥ 6.00 | Cn1cnc(S(=O)(=O)NCCOc2cccc(C(Cc3ccccc3)CN3CCCC3)c2)c1 (stereo not drawn) [Example 35, 1-Methyl-1H-imidazole-4-sulfonic acid {2-[3-(1-benzyl-2-pyrrolidin-1-yl-ethyl)phenoxy]-ethyl}-amide]
≥ 7.00 | Cn1cnc(S(=O)(=O)NCCOc2cccc(C3(Cc4ccccc4)CNC3)c2)c1 [Example 51, 1-Methyl-1H-imidazole-4-sulfonic acid {2-[3-(3-benzyl-azetidin-3-yl)phenoxy]-ethyl}-amide]
≥ 7.00 | Cn1cc(S(=O)(=O)NCc2cccc(C(CN)Cc3ccccc3)c2)cn1 (stereo not drawn) [Example 18, 1-Methyl-1H-pyrazole-4-sulfonic acid 3-(2-amino-1-benzyl-ethyl)benzylamide, hydrochloride]
≥ 7.00 | Cn1cc(S(=O)(=O)NCc2cccc(C3(Cc4ccccc4)CCNC3)c2)cn1 (stereo not drawn) [Example 67, 1-Methyl-1H-pyrazole-4-sulfonic acid 3-(3-benzyl-pyrrolidin-3-yl)benzylamide]
≥ 7.00 | CN(C)CC(Cc1cccc(C(F)(F)F)c1)c1cccc(OCCNS(=O)(=O)c2cnn(C)c2)c1 (stereo not drawn) [Example 28, 1-Methyl-1H-pyrazole-4-sulfonic acid (2-{3-[2-dimethylamino-1-(3-trifluoromethyl-benzyl)-ethyl]-phenoxy}-ethyl)-amide]
≥ 7.00 | Cn1cnc(S(=O)(=O)NCCOc2cccc(C(CN)Cc3cccc(C(F)(F)F)c3)c2)c1 (stereo not drawn) [Example 12, 1-Methyl-1H-imidazole-4-sulfonic acid (2-{3-[2-amino-1-(3-trifluoromethylbenzyl)-ethyl]-phenoxy}-ethyl)-amide, hydrochloride]
